A word on the inhibition: it is the relative decrease from the control value, in per cent. A word on the IC50: it is the midpoint of a concentration-inhibition curve.

Consider two compounds from ChEMBL document CHEMBL5303766, “Data for DCP probe FHT-2344” (2022).

In test [1] the target is STE20/SPS1-related proline-alanine-rich protein kinase (Homo sapiens) (UniProt Q9UEW8). The test can be described thus: STK39 SGC Tm panel (DSF). The settings on record: for ΔTm: Compound concentration 10.0 uM.
In test [2] the target is T1, Cyclin-G-associated kinase (Homo sapiens) (UniProt O14976).
T1 sequence (whole entry): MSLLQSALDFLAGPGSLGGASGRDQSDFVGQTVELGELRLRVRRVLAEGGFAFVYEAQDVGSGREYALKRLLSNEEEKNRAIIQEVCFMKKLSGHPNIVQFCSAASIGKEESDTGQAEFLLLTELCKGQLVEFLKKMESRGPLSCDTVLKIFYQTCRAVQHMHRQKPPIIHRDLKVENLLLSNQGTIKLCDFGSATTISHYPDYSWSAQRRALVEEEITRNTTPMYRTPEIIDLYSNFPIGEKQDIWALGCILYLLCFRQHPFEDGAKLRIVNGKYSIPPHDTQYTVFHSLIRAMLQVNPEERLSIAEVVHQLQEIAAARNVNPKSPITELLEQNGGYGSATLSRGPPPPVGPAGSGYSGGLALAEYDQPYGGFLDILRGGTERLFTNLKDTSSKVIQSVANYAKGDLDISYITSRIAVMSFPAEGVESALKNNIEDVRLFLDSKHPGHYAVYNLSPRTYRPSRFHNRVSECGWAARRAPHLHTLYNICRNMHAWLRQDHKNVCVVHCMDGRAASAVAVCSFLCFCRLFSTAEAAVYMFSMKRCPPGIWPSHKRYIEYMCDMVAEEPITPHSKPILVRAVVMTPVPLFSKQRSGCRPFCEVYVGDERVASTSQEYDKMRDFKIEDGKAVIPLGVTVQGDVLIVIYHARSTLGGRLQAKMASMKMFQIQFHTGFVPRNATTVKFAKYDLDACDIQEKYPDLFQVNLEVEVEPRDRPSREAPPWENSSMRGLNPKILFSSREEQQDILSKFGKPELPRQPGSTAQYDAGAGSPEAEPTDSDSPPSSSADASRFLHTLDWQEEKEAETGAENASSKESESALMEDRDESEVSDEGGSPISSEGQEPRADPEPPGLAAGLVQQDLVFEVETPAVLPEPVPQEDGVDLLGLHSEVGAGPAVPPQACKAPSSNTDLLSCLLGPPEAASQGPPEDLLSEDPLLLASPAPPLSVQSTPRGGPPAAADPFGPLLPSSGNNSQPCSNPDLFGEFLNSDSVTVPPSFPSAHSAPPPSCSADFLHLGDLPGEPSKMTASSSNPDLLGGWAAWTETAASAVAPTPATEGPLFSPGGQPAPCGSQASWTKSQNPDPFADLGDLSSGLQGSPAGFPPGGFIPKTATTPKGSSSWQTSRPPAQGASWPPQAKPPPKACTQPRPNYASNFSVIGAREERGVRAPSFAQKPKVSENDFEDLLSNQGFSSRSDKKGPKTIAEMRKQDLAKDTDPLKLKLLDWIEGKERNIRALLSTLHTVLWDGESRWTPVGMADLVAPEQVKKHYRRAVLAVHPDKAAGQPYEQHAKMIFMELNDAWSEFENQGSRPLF
Kind of test: GAK SGC Tm panel (DSF). The settings on record: for ΔTm: Compound concentration 10.0 uM.

Test [3] has as its target Muscarinic acetylcholine receptor M3 (Homo sapiens) (UniProt P20309). The settings on record: Compound concentration 10.0 uM.
The target of test [4] is Calcium/calmodulin-dependent protein kinase kinase 2 (Homo sapiens) (UniProt Q96RR4). The test can be described thus: CAMKK2 SGC Tm panel (DSF). The settings on record: for ΔTm: Compound concentration 10.0 uM.
Calcium/calmodulin-dependent protein kinase kinase 2 (Homo sapiens), sequence (Q96RR4 2-588 limits assumed): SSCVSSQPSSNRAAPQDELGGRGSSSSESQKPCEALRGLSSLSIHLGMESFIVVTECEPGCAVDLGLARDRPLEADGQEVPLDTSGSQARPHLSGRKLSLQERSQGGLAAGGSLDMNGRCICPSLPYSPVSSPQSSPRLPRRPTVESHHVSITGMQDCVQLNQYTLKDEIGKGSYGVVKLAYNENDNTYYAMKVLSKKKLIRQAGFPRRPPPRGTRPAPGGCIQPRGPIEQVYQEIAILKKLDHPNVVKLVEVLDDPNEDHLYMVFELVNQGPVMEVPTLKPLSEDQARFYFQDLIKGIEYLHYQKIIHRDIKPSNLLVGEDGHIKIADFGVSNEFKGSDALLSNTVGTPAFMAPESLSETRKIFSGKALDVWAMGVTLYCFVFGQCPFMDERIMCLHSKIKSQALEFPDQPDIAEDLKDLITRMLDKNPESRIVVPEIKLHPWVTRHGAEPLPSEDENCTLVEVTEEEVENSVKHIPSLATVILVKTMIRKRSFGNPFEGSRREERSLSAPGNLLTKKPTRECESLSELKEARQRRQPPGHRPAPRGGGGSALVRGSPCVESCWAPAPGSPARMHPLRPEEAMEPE
The target of test [5] is Muscarinic acetylcholine receptor M2 (Homo sapiens) (UniProt P08172). The settings on record: Compound concentration 10.0 uM.
Muscarinic acetylcholine receptor M2 (Homo sapiens), sequence (P08172 whole entry): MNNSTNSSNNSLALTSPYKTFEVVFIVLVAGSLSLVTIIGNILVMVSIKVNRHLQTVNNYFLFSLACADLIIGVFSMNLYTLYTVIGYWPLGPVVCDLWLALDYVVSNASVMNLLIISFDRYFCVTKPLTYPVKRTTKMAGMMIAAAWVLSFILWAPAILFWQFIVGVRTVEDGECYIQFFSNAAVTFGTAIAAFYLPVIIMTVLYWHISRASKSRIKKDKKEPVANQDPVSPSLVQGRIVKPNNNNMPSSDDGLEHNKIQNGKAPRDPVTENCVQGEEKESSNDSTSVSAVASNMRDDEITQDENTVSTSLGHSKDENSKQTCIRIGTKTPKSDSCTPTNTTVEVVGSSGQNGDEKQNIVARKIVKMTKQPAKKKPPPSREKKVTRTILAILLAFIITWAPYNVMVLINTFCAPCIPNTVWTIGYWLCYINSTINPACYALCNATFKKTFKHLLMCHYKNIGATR
Test [6] has as its target SWI/SNF-related matrix-associated actin-dependent regulator of chromatin subfamily A member 2 (Homo sapiens, UniProt P51531). The test can be described thus: Luciferase reporter assay: SMARCA2 transcriptional activity in a SMARCA4-mutant cell line. The format is functional.
Test [7] addresses D(4) dopamine receptor (Homo sapiens) (UniProt P21917). The settings on record: Compound concentration 10.0 uM.
Test [8] deals with Alpha-2A adrenergic receptor (Homo sapiens) (UniProt P08913). The settings on record: Compound concentration 10.0 uM.
Alpha-2A adrenergic receptor (Homo sapiens), sequence (P08913 whole entry): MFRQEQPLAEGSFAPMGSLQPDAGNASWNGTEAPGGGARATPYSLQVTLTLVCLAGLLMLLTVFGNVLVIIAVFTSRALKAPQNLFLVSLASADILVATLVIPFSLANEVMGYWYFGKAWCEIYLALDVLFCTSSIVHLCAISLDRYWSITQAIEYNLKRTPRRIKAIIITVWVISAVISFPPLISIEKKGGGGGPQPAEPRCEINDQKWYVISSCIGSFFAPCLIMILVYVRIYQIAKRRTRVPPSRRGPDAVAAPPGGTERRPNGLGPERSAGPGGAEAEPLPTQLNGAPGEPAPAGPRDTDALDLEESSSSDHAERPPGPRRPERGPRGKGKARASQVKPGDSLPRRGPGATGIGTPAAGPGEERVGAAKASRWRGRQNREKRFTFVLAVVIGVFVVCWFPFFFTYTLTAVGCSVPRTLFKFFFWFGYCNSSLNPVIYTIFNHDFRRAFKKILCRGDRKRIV
For test [9], the target named is Fibroblast growth factor receptor 2 (Homo sapiens) (UniProt P21802). The test can be described thus: FGFR2 SGC Tm panel (DSF). The settings on record: for ΔTm: Compound concentration 10.0 uM.
Fibroblast growth factor receptor 2 (Homo sapiens), sequence (P21802 22-821 limits assumed): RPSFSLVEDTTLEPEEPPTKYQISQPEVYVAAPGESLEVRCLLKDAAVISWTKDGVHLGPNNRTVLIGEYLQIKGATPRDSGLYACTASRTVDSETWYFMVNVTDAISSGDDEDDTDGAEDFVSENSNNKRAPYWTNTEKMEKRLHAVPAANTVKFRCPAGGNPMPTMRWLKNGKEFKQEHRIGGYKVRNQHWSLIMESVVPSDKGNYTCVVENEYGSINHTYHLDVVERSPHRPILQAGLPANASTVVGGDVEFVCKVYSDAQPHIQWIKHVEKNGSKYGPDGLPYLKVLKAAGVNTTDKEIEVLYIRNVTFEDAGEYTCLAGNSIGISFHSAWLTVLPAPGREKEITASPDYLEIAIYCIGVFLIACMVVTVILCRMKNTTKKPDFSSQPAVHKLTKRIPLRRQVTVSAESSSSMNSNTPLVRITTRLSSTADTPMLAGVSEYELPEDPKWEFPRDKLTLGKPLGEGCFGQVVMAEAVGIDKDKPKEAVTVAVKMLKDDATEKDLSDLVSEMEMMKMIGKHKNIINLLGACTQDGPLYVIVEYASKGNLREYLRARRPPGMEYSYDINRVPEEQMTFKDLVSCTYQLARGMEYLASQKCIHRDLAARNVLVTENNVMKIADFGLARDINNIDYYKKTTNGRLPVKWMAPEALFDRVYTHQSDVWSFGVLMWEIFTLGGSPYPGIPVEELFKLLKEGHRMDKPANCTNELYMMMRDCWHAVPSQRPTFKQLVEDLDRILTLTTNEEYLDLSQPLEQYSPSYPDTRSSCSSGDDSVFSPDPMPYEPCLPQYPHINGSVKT
The target of test [10] is T2, MAP/microtubule affinity-regulating kinase 4 (Homo sapiens) (UniProt Q96L34).
T2 sequence (whole entry): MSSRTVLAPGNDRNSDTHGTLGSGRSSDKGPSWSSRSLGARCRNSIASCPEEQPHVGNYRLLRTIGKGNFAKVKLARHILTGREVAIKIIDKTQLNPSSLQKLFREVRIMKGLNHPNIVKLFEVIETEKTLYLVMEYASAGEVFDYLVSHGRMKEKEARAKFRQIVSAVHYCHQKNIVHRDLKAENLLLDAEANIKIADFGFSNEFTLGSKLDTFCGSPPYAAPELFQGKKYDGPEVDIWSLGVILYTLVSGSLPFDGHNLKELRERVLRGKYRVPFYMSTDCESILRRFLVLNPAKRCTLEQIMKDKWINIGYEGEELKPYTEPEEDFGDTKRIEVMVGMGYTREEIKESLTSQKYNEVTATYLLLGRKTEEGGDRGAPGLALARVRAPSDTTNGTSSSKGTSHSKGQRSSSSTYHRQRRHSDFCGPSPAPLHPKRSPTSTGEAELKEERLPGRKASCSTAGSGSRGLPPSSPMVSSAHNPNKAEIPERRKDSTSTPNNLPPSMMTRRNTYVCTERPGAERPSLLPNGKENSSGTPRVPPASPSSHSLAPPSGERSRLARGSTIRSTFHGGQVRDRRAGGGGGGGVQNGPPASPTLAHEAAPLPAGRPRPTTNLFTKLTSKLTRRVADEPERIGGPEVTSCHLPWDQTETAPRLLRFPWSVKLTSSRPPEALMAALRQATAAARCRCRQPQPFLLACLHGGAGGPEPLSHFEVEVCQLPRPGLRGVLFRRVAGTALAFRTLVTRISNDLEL
Kind of test: MARK4 SGC Tm panel (DSF). The settings on record: for ΔTm: Compound concentration 10.0 uM.

Structures are written as SMILES. The source made the active and inactive calls. The rule behind the calls is not given here.

Muscarinic acetylcholine receptor M3 (Homo sapiens), sequence (P20309 whole entry, looked up): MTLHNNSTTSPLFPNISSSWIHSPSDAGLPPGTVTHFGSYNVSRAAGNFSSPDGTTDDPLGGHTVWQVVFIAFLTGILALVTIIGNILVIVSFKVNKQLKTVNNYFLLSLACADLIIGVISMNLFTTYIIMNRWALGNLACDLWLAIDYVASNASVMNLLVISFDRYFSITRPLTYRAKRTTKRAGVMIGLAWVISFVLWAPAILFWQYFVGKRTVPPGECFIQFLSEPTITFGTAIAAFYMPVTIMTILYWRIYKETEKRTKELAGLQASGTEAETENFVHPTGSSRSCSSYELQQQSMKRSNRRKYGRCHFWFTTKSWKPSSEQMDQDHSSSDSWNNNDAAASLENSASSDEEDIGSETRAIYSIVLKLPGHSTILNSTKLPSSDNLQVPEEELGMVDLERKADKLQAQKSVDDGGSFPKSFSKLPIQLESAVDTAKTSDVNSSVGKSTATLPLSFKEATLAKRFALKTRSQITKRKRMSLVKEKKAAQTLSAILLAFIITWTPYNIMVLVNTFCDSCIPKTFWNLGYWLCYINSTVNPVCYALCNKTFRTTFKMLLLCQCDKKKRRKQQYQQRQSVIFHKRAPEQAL
D(4) dopamine receptor (Homo sapiens), sequence (P21917 whole entry): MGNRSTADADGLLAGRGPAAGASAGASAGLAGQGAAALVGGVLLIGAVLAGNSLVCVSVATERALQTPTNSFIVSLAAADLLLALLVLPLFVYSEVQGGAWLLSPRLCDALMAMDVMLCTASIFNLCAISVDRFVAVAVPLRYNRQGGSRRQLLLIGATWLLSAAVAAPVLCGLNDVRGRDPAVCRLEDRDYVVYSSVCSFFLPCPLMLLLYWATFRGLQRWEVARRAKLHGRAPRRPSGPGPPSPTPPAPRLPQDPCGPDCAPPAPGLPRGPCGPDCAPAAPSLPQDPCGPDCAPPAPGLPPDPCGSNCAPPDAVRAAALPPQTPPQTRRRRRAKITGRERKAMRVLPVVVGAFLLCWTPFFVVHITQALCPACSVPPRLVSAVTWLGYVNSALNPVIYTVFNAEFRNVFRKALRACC
SWI/SNF-related matrix-associated actin-dependent regulator of chromatin subfamily A member 2, sequence (P51531 whole entry, looked up, change not shown): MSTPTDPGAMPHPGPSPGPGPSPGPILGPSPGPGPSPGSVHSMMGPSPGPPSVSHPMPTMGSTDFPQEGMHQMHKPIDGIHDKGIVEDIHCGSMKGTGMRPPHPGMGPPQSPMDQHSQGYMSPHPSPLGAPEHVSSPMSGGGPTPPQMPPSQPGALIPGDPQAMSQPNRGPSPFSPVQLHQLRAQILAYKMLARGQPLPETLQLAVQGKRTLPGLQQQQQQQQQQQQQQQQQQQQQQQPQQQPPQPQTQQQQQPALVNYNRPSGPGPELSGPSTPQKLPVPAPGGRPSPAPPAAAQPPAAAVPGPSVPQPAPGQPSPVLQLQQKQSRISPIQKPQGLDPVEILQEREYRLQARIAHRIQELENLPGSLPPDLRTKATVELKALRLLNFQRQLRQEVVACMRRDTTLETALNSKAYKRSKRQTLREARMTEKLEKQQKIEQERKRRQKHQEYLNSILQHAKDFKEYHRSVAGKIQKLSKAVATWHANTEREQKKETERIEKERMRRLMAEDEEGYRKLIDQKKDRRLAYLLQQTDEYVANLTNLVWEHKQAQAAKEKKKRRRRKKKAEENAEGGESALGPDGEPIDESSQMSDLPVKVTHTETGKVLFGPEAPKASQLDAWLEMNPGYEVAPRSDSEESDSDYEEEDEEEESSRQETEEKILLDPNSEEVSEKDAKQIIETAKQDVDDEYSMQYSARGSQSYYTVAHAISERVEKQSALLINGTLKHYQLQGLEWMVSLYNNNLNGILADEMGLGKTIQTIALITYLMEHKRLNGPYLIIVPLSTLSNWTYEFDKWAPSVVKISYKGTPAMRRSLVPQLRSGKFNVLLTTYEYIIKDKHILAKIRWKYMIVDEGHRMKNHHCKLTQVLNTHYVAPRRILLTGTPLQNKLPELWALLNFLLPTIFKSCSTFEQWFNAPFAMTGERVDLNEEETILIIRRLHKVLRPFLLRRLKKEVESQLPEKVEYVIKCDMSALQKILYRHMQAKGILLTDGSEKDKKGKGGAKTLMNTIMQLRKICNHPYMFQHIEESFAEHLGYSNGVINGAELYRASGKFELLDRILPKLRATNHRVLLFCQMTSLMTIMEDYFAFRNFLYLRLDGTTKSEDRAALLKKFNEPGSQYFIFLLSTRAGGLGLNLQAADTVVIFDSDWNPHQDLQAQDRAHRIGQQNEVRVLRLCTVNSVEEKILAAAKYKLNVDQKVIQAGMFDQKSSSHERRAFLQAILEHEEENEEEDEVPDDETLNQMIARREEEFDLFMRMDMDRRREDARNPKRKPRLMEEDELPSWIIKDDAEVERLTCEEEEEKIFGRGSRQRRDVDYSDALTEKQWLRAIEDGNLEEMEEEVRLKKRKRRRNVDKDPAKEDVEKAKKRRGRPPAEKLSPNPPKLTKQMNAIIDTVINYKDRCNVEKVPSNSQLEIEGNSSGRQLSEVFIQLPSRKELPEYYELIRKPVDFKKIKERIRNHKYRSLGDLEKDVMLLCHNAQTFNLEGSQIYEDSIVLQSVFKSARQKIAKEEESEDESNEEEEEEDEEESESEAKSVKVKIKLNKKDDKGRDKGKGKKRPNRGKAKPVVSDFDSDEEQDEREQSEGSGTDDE

`C[C@H](NC(=O)c1cn(C2(C#N)CC2)cn1)C(=O)Nc1nc(-c2cccc(-c3ccn(C)n3)c2)cs1`: the delta Tm Staurosporine positive control is 8.57 in test [1]; 8.71 in [2]; 24.4 in [4]; 8.53 in [9]; 15.8 in [10]. Besides, the ΔTm in test [1] is 0.258; in test [2], -0.0366; in test [4], 0.609; in [9], 0.191; in [10], 0.462. Also, the inhibition was 40.1% in test [3], 16.3% in test [5], 6.59% in [7] and 10.5% in test [8]. For the same compound, in [6], the concentration for half-maximal inhibition (IC50) was 4350 nM (not active).
On to `COC[C@H](NC(=O)c1ccn(S(C)(=O)=O)c1)C(=O)Nc1nc(-c2cccc(-c3ccn(C)n3)c2)cs1`, for which the delta Tm Staurosporine positive control in test [1] was 8.57; in test [2], 8.71; in test [4], 24.4; in test [9] it was 8.53; in test [10] it was 15.8. Moreover, the ΔTm in [1] was 0.181; in test [2] it was -0.217; in [4], 0.325; in [9], 0.294; in test [10], 0.492. Further, the inhibition is 9.46% in test [3], 6.19% in test [5], 1.52% in test [7] and 5.84% in test [8]. For the same compound, in test [6], the IC50 was 29.8 nM (active).
